Test results reported in patent publication US20250163104A1, “MACROCYCLIC IMMUNOMODULATORS” (priority 2021, published 2025).
Where a SMILES comes first, the peptide text is derived from it. Bridges are numbered along the chain shown (N, C = ends). [ ]: non-standard residue; d: D form. The star is where a group is joined. Bip = N[C@@H](Cc1ccc(-c2ccccc2)cc1)C(=O)O; Phe(3-Me) = Cc1cccc(C[C@H](N)C(=O)O)c1; Val(3-OH) = CC(C)(O)[C@H](N)C(=O)O; mTyr = N[C@@H](Cc1cccc(O)c1)C(=O)O; Benzoyl(4-F) = O=C(c1ccc(F)cc1)*; 4Pal = N[C@@H](Cc1ccncc1)C(=O)O; Cha = N[C@@H](CC1CCCCC1)C(=O)O; dDab = NCC[C@@H](N)C(=O)O; Carboxymethyl = O=C(O)C*; Orn = NCCC[C@H](N)C(=O)O; Dab = NCC[C@H](N)C(=O)O; Dap = NC[C@H](N)C(=O)O

target: T1, human PD-1 / PD-L1-Ig binding on Jurkat cell line over-expressing human PD-1 (Jurkat-PD-1) (Homo sapiens, UniProt Q15116); experiment: Jurkat-PD-1 Cell Binding High-Content Screening Assay (CBA); format: cell-based; settings: Jurkat-PD-1 cells, PE-labeled PD-L1-Ig 20 nM final; read-out: Jurkat HPD1_PDL1 IC50
T1 construct: expressed in transfected cells; host or cells: Jurkat
T1 sequence (Q15116 25-288): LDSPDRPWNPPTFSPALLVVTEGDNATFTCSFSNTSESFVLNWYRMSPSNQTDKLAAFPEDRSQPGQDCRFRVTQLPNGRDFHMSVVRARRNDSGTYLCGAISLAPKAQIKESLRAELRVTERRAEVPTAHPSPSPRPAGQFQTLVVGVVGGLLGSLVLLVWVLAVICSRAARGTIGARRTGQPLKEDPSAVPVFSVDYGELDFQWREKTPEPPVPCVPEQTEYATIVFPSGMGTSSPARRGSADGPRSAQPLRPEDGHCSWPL
Outline: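 Binding of fluorescent PD-L1-Ig (phycoerythrin linked via the Ig tag, 20 nM final) to PD-1-overexpressing Jurkat cells was imaged after a 2 h, 37° C compound pretreatment and 1 hour ligand incubation.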

SMILES | IC50
Cc1cccc(C[C@@H]2NC(=O)[C@H](CC(=O)O)NC(=O)[C@H](Cc3ccc(OCC(=O)O)cc3)NC(=O)[C@H](CN)NC(=O)CSC[C@@H](C(=O)N[C@@H](CCN)C(N)=O)NC(=O)[C@@H](CCN)NC(=O)[C@H](C(C)C)NC(=O)[C@H](CC3CCCCC3)NC(=O)[C@H](CCN)NC(=O)[C@@H](CC(C)C)NC(=O)[C@H](CCCN)NC(=O)[C@H](Cc3ccc(O)cc3)NC(=O)[C@H](Cc3ccc(-c4ccccc4)cc3)NC(=O)[C@H](Cc3ccc(O)cc3)NC2=O)c1 [Compound 2045] ({CH2CO}-[Dap]Y(Carboxymethyl)D[Phe(3-Me)]Y[Bip]Y[Orn][dL][Dab][Cha]V[dDab]C[Dab]-NH2; thioether N-14) | 10.5 nM
CCNC(=O)[C@H](CCN)NC(=O)[C@@H]1CSCC(=O)N[C@@H](CN)C(=O)N[C@@H](Cc2ccc(OCC(=O)O)cc2)C(=O)N[C@@H](CC(=O)O)C(=O)N[C@@H](Cc2cccc(O)c2)C(=O)N[C@@H](C(C)C)C(=O)N[C@@H](Cc2ccc(-c3ccccc3)cc2)C(=O)N[C@@H](Cc2ccc(O)cc2)C(=O)N[C@@H](CCCN)C(=O)N[C@H](CC(C)C)C(=O)N[C@@H](CCN)C(=O)N[C@@H](CC2CCCCC2)C(=O)N[C@@H](C(C)C)C(=O)N[C@@H](CCCN)C(=O)N1 [Compound 2046] ({CH2CO}-[Dap]Y(Carboxymethyl)D[mTyr]V[Bip]Y[Orn][dL][Dab][Cha]V[Orn]C[Dab]-NHEt; thioether N-14) | 16.7 nM
CCNC(=O)[C@H](CCN)NC(=O)[C@@H]1CSCC(=O)N[C@@H](CN)C(=O)N[C@@H](Cc2ccc(OCC(=O)O)cc2)C(=O)N[C@@H](CC(=O)O)C(=O)N[C@@H](Cc2cccc(O)c2)C(=O)N[C@@H](Cc2ccc(O)cc2)C(=O)N[C@@H](Cc2ccc(-c3ccccc3)cc2)C(=O)N[C@@H](Cc2ccc(O)cc2)C(=O)N[C@@H](CCCN)C(=O)N[C@H](CC(C)C)C(=O)N[C@@H](CCN)C(=O)N[C@@H](CC2CCCCC2)C(=O)N[C@@H](C(C)C)C(=O)N[C@@H](CCCN)C(=O)N1 [Compound 2047] ({CH2CO}-[Dap]Y(Carboxymethyl)D[mTyr]Y[Bip]Y[Orn][dL][Dab][Cha]V[Orn]C[Dab]-NHEt; thioether N-14) | 2.8 nM
Cc1cccc(C[C@@H]2NC(=O)[C@H](CC(=O)O)NC(=O)[C@H](Cc3ccc(OCC(=O)O)cc3)NC(=O)[C@H](CNC(=O)c3ccc(F)cc3)NC(=O)CSC[C@@H](C(N)=O)NC(=O)[C@H]([C@@H](C)O)NC(=O)[C@H](C(C)C)NC(=O)[C@H](CC3CCCCC3)NC(=O)[C@H](CCN)NC(=O)[C@@H](CC(C)C)NC(=O)[C@H](CCCN)NC(=O)[C@H](Cc3ccc(OCC(=O)O)cc3)NC(=O)[C@H](Cc3ccc(-c4ccccc4)cc3)NC(=O)[C@H](Cc3ccc(O)cc3)NC2=O)c1 [Compound 2048] ({CH2CO}-[Dap](Benzoyl(4-F))Y(Carboxymethyl)D[Phe(3-Me)]Y[Bip]Y(Carboxymethyl)[Orn][dL][Dab][Cha]VTC-NH2; thioether N-14) | 40.2 nM
Cc1cccc(C[C@@H]2NC(=O)[C@H](CC(=O)O)NC(=O)[C@H](Cc3ccc(OCC(=O)O)cc3)NC(=O)[C@H](CCNC(=O)c3ccc(F)cc3)NC(=O)CSC[C@@H](C(N)=O)NC(=O)[C@H]([C@@H](C)O)NC(=O)[C@H](C(C)C)NC(=O)[C@H](CC3CCCCC3)NC(=O)[C@H](CCN)NC(=O)[C@@H](CC(C)C)NC(=O)[C@H](CCCN)NC(=O)[C@H](Cc3ccc(OCC(=O)O)cc3)NC(=O)[C@H](Cc3ccc(-c4ccccc4)cc3)NC(=O)[C@H](Cc3ccc(O)cc3)NC2=O)c1 [Compound 2049] ({CH2CO}-[Dab](Benzoyl(4-F))Y(Carboxymethyl)D[Phe(3-Me)]Y[Bip]Y(Carboxymethyl)[Orn][dL][Dab][Cha]VTC-NH2; thioether N-14) | 79.3 nM
Cc1cccc(C[C@@H]2NC(=O)[C@H](CC(=O)O)NC(=O)[C@H](Cc3ccc(OCC(=O)O)cc3)NC(=O)[C@H](CCCNC(=N)N)NC(=O)CSC[C@@H](C(N)=O)NC(=O)[C@H]([C@@H](C)O)NC(=O)[C@H](C(C)C)NC(=O)[C@H](CC3CCCCC3)NC(=O)[C@H](CCN)NC(=O)[C@@H](CC(C)C)NC(=O)[C@H](CCCNC(=O)c3ccc(F)cc3)NC(=O)[C@H](Cc3ccc(OCC(=O)O)cc3)NC(=O)[C@H](Cc3ccc(-c4ccccc4)cc3)NC(=O)[C@H](Cc3ccc(O)cc3)NC2=O)c1 [Compound 2050] ({CH2CO}-RY(Carboxymethyl)D[Phe(3-Me)]Y[Bip]Y(Carboxymethyl)[Orn](Benzoyl(4-F))[dL][Dab][Cha]VTC-NH2; thioether N-14) | 121 nM
CC(=O)NCCC[C@@H]1NC(=O)[C@H](Cc2ccc(OCC(=O)O)cc2)NC(=O)[C@H](Cc2ccc(-c3ccccc3)cc2)NC(=O)[C@H](Cc2ccc(O)cc2)NC(=O)[C@H](Cc2cccc(C)c2)NC(=O)[C@H](CC(=O)O)NC(=O)[C@H](Cc2ccc(OCC(=O)O)cc2)NC(=O)[C@H](CCCNC(=N)N)NC(=O)CSC[C@@H](C(N)=O)NC(=O)[C@H]([C@@H](C)O)NC(=O)[C@H](C(C)C)NC(=O)[C@H](CC2CCCCC2)NC(=O)[C@H](CCN)NC(=O)[C@@H](CC(C)C)NC1=O [Compound 2051] ({CH2CO}-RY(Carboxymethyl)D[Phe(3-Me)]Y[Bip]Y(Carboxymethyl)[Orn](Ac)[dL][Dab][Cha]VTC-NH2; thioether N-14) | 48.5 nM
Cc1cccc(C[C@@H]2NC(=O)[C@H](CC(=O)O)NC(=O)[C@H](Cc3ccc(OCC(=O)O)cc3)NC(=O)[C@H](CCCNC(=N)N)NC(=O)CSC[C@@H](C(N)=O)NC(=O)[C@H]([C@@H](C)O)NC(=O)[C@H](C(C)C)NC(=O)[C@H](CC3CCCCC3)NC(=O)[C@H](CCN)NC(=O)[C@@H](CC(C)C)NC(=O)[C@H](CCCN)NC(=O)[C@H](CCCNC(=O)c3ccc(F)cc3)NC(=O)[C@H](Cc3ccc(-c4ccccc4)cc3)NC(=O)[C@H](Cc3ccc(O)cc3)NC2=O)c1 [Compound 2052] ({CH2CO}-RY(Carboxymethyl)D[Phe(3-Me)]Y[Bip][Orn](Benzoyl(4-F))[Orn][dL][Dab][Cha]VTC-NH2; thioether N-14) | 145 nM
Cc1cccc(C[C@@H]2NC(=O)[C@H](CC(=O)O)NC(=O)[C@H](Cc3ccc(OCC(=O)O)cc3)NC(=O)[C@H](CCCNC(=N)N)NC(=O)CSC[C@@H](C(N)=O)NC(=O)[C@H](CCCNC(=O)c3ccc(F)cc3)NC(=O)[C@H](C(C)C)NC(=O)[C@H](CC3CCCCC3)NC(=O)[C@H](CCN)NC(=O)[C@@H](CC(C)C)NC(=O)[C@H](CCCN)NC(=O)[C@H](Cc3ccc(OCC(=O)O)cc3)NC(=O)[C@H](Cc3ccc(-c4ccccc4)cc3)NC(=O)[C@H](Cc3ccc(O)cc3)NC2=O)c1 [Compound 2053] ({CH2CO}-RY(Carboxymethyl)D[Phe(3-Me)]Y[Bip]Y(Carboxymethyl)[Orn][dL][Dab][Cha]V[Orn](Benzoyl(4-F))C-NH2; thioether N-14) | 39.4 nM
CC(=O)NCCC[C@@H]1NC(=O)[C@H](C(C)C)NC(=O)[C@H](CC2CCCCC2)NC(=O)[C@H](CCN)NC(=O)[C@@H](CC(C)C)NC(=O)[C@H](CCCN)NC(=O)[C@H](Cc2ccc(OCC(=O)O)cc2)NC(=O)[C@H](Cc2ccc(-c3ccccc3)cc2)NC(=O)[C@H](Cc2ccc(O)cc2)NC(=O)[C@H](Cc2cccc(C)c2)NC(=O)[C@H](CC(=O)O)NC(=O)[C@H](Cc2ccc(OCC(=O)O)cc2)NC(=O)[C@H](CCCNC(=N)N)NC(=O)CSC[C@@H](C(N)=O)NC1=O [Compound 2054] ({CH2CO}-RY(Carboxymethyl)D[Phe(3-Me)]Y[Bip]Y(Carboxymethyl)[Orn][dL][Dab][Cha]V[Orn](Ac)C-NH2; thioether N-14) | 12.4 nM
Cc1cccc(C[C@@H]2NC(=O)[C@H](CC(=O)O)NC(=O)[C@H](Cc3ccc(OCC(=O)O)cc3)NC(=O)[C@H](CCCNC(=N)N)NC(=O)CSC[C@@H](C(N)=O)NC(=O)[C@H]([C@@H](C)O)NC(=O)[C@H](C(C)C)NC(=O)[C@H](CC3CCCCC3)NC(=O)[C@H](CCN)NC(=O)[C@@H](CC(C)C)NC(=O)[C@H](CCCN)NC(=O)[C@H](CCCN)NC(=O)[C@H](Cc3ccc(-c4ccccc4)cc3)NC(=O)[C@H](Cc3ccc(O)cc3)NC2=O)c1 [Compound 2055] ({CH2CO}-RY(Carboxymethyl)D[Phe(3-Me)]Y[Bip][Orn][Orn][dL][Dab][Cha]VTC-NH2; thioether N-14) | 97.3 nM
Cc1cccc(C[C@@H]2NC(=O)[C@H](CC(=O)O)NC(=O)[C@H](Cc3ccc(OCC(=O)O)cc3)NC(=O)[C@H](CCCNC(=N)N)NC(=O)CSC[C@@H](C(N)=O)NC(=O)[C@H]([C@@H](C)O)NC(=O)[C@H](C(C)C)NC(=O)[C@H](CC3CCCCC3)NC(=O)[C@H](CCN)NC(=O)[C@@H](CC(C)C)NC(=O)[C@H](CCCN)NC(=O)[C@H](Cc3ccc(OCC(=O)O)cc3)NC(=O)[C@H](Cc3ccc(-c4ccccc4)cc3)NC(=O)[C@H](Cc3ccc(O)cc3)NC2=O)c1 [Compound 2056] ({CH2CO}-RY(Carboxymethyl)D[Phe(3-Me)]Y[Bip]Y(Carboxymethyl)[Orn][dL][Dab][Cha]VTC-NH2; thioether N-14) | 27.5 nM
Cc1cccc(C[C@@H]2NC(=O)[C@H](CC(=O)O)NC(=O)[C@H](Cc3ccc(OCC(=O)O)cc3)NC(=O)[C@H](Cc3ccncc3)NC(=O)CSC[C@@H](C(=O)N[C@@H](CCN)C(N)=O)NC(=O)[C@H](CO)NC(=O)[C@H](C(C)(C)O)NC(=O)[C@H](CC3CCCCC3)NC(=O)[C@H](CCN)NC(=O)[C@@H](CC(C)C)NC(=O)[C@H](CCCN)NC(=O)[C@H](Cc3ccc(OCC(=O)O)cc3)NC(=O)[C@H](Cc3ccc(-c4ccccc4)cc3)NC(=O)[C@H](Cc3ccc(OCC(=O)O)cc3)NC2=O)c1 [Compound 2057] ({CH2CO}-[4Pal]Y(Carboxymethyl)D[Phe(3-Me)]Y(Carboxymethyl)[Bip]Y(Carboxymethyl)[Orn][dL][Dab][Cha][Val(3-OH)]SC[Dab]-NH2; thioether N-14) | 3.6 nM
